Results on 18 compounds are retold here after ChEMBL document CHEMBL4610014, “Discovery of novel 2,4-disubstituted pyrimidines as Aurora kinase inhibitors” (Bioorg Med Chem Lett, 2020).

The subject of one experiment is A549. The experiment in a line: Antiproliferative activity against human A549 cells assessed as reduction in cell viability after 72 hrs by MTT assay. In kind it is functional, cell-based. Conditions: A549, 72 h.
Experiment [1] has as its system HCT-116. The experiment is described as follows: Antiproliferative activity against human HCT116 cells assessed as reduction in cell viability after 72 hrs by MTT assay. In kind it is functional, cell-based. As to conditions: HCT-116, 72 h.
The test system of another experiment is MCF7. The experiment is described as follows: Antiproliferative activity against human MCF7 cells assessed as reduction in cell viability after 72 hrs by MTT assay. The format is functional, cell-based. Conditions: MCF7, 72 h. Background: Formazan colour is commonly taken as a measure of viable cells.
Experiment [2] concerns the target T1, Aurora kinase B (Homo sapiens, UniProt Q96GD4). The experiment is described as follows: Inhibition of Aurora B (unknown origin) after 1 hr in presence of ATP by Kinase-Glo reagent-based luminescence assay.
For experiment [3], the target named is Vascular endothelial growth factor receptor 2 (Homo sapiens) (UniProt P35968). The experiment is described as follows: Inhibition of VEGFR2 (unknown origin) at 1 uM after 1 hr in presence of ATP by Kinase-Glo reagent-based luminescence assay relative to control.
In experiment [4] the target is Phosphatidylinositol 4,5-bisphosphate 3-kinase catalytic subunit alpha isoform (Homo sapiens) (UniProt P42336). The experiment in a line: Inhibition of PI3Kalpha (unknown origin) at 1 uM after 1 hr in presence of ATP by Kinase-Glo reagent-based luminescence assay relative to control. On the technique in general: Kinase-Glo reads ATP consumption through a luciferase reaction.

Experiment [5] has as its target Fibroblast growth factor receptor 1 (Homo sapiens) (UniProt P11362). The experiment in a line: Inhibition of FGFR1 (unknown origin) at 1 uM after 1 hr in presence of ATP by Kinase-Glo reagent-based luminescence assay relative to control.
A further experiment has as its target T2, Aurora kinase A (Homo sapiens, UniProt O14965).
T2 sequence (O14965 whole entry): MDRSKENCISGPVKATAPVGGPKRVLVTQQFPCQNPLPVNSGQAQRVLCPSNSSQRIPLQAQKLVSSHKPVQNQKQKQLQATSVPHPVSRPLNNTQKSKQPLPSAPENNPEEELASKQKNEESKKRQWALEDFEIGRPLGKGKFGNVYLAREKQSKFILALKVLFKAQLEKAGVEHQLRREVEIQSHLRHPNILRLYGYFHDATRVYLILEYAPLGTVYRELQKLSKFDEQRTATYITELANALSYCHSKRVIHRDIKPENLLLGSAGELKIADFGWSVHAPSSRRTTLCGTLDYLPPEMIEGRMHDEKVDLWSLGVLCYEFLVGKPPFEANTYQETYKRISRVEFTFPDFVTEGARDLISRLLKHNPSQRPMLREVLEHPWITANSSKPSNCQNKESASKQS
The experiment is described as follows: Inhibition of Aurora A (unknown origin) after 1 hr in presence of ATP by Kinase-Glo reagent-based luminescence assay.

Experiment [6] has as its target T3, Aurora kinase A (Homo sapiens) (UniProt O14965).
T3 sequence (whole entry): T2 sequence (O14965 whole entry)
The experiment is described as follows: Inhibition of Aurora A in human HCT116 cells assessed as reduction in phosphorylation at Thr288 residue at 0.5 to 5 uM after 12 hrs by Western blot analysis. In kind it is cell-based. Conditions: HCT-116.

Experiment [7] has as its target T1, Aurora kinase B. The experiment in a line: Inhibition of Aurora B in human HCT116 cells assessed as reduction in phosphorylation at Thr232 residue at 0.5 to 5 uM after 12 hrs by Western blot analysis. The format is cell-based. As to conditions: HCT-116. (In general: A western blot detects proteins with antibodies after separation by electrophoresis.)
Experiment [8] relates to HCT-116. The experiment is described as follows: Induction of apoptosis in human HCT116 cells assessed as viable cells at 0.1 uM after 48 hrs by Annexin-V/PI-staining based flow cytometry (reference value: 89.72%). In kind it is functional. Conditions: HCT-116, 48 h, read-out: Activity.
Experiment [9] deals with HCT-116. The experiment in a line: Induction of apoptosis in human HCT116 cells assessed as early apoptotic cells at 0.1 uM after 48 hrs by Annexin-V/PI-staining based flow cytometry (reference value: 0.54%). In kind it is functional.
Experiment [10] deals with HCT-116. The experiment in a line: Induction of apoptosis in human HCT116 cells assessed as late apoptotic cells at 0.1 uM after 48 hrs by Annexin-V/PI-staining based flow cytometry (reference value: 3.34%). The format is functional.
The test system of experiment [11] is HCT-116. The experiment in a line: Induction of apoptosis in human HCT116 cells assessed as necrotic cells at 0.1 uM after 48 hrs by Annexin-V/PI-staining based flow cytometry (reference value: […]). In kind it is functional.
Experiment [12] has as its system HCT-116. The experiment is described as follows: Induction of apoptosis in human HCT116 cells assessed as viable cells at 0.5 uM after 48 hrs by Annexin-V/PI-staining based flow cytometry (reference value: 89.72%). Conditions: HCT-116, 48 h, read-out: Activity. In kind it is functional.
Experiment [13] has as its system HCT-116. The experiment in a line: Induction of apoptosis in human HCT116 cells assessed as early apoptotic cells at 0.5 uM after 48 hrs by Annexin-V/PI-staining based flow cytometry (reference value: 0.54%). In kind it is functional.
In experiment [14] the test system is HCT-116. The experiment in a line: Induction of apoptosis in human HCT116 cells assessed as late apoptotic cells at 0.5 uM after 48 hrs by Annexin-V/PI-staining based flow cytometry (reference value: 3.34%). The format is functional.
For experiment [15], the system named is HCT-116. The experiment in a line: Induction of apoptosis in human HCT116 cells assessed as necrotic cells at 0.5 uM after 48 hrs by Annexin-V/PI-staining based flow cytometry (reference value: […]). The format is functional.
The subject of experiment [16] is HCT-116. The experiment in a line: Induction of apoptosis in human HCT116 cells assessed as viable cells at 1 uM after 48 hrs by Annexin-V/PI-staining based flow cytometry (reference value: 89.72%). In kind it is functional. Conditions: HCT-116, 48 h, read-out: Activity.
The subject of experiment [17] is HCT-116. The experiment is described as follows: Induction of apoptosis in human HCT116 cells assessed as early apoptotic cells at 1 uM after 48 hrs by Annexin-V/PI-staining based flow cytometry (reference value: 0.54%). The format is functional.
Experiment [18] concerns HCT-116. The experiment in a line: Induction of apoptosis in human HCT116 cells assessed as late apoptotic cells at 1 uM after 48 hrs by Annexin-V/PI-staining based flow cytometry (reference value: 3.34%). In kind it is functional.
In experiment [19] the test system is HCT-116. The experiment in a line: Induction of apoptosis in human HCT116 cells assessed as necrotic cells at 1 uM after 48 hrs by Annexin-V/PI-staining based flow cytometry (reference value: […]). In kind it is functional.
The test system of experiment [20] is HCT-116. The experiment in a line: Induction of apoptosis in human HCT116 cells assessed as necrotic cells after 48 hrs by Annexin-V/PI-staining based flow cytometry. The format is functional, cell-based.
Experiment [21] concerns HCT-116. The experiment is described as follows: Induction of apoptosis in human HCT116 cells assessed as increase in bax protein expression at 0.5 to 5 uM after 12 hrs by Western blot analysis. In kind it is functional, cell-based.
Experiment [22] has as its system HCT-116. The experiment is described as follows: Induction of apoptosis in human HCT116 cells assessed as decrease in bcl-xl protein expression at 0.5 to 5 uM after 12 hrs by Western blot analysis. In kind it is functional, cell-based.
For another experiment, the target named is T4, Aurora kinase C (Homo sapiens, UniProt Q9UQB9).
T4 sequence (Q9UQB9 whole entry): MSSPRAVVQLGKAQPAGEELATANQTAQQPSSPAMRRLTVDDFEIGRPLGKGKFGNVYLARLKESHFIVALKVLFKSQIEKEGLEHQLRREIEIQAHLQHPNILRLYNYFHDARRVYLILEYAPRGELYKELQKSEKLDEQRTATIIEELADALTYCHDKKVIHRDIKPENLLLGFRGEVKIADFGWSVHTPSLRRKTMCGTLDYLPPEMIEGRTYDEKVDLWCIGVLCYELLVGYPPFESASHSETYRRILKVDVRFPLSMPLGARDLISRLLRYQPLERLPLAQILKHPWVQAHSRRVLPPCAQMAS

What is called IC50 is the concentration at which inhibition is half-maximal. As a reminder, the inhibition is the change of the read-out against control, counted positive when it falls.

The source made the active and inactive calls. The calls are words filed in the database; no cut-off is given here.

T1 sequence (Q96GD4 whole entry): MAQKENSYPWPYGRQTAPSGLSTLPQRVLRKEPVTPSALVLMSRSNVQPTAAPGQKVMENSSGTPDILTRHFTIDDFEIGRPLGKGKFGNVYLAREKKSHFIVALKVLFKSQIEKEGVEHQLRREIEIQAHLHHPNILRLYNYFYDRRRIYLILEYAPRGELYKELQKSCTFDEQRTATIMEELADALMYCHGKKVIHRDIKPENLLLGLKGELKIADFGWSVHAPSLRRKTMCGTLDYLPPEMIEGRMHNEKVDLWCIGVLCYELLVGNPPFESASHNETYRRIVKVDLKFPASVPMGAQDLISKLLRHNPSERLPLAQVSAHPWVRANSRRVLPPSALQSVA
Fibroblast growth factor receptor 1 (Homo sapiens), sequence (P11362 22-822 limits assumed): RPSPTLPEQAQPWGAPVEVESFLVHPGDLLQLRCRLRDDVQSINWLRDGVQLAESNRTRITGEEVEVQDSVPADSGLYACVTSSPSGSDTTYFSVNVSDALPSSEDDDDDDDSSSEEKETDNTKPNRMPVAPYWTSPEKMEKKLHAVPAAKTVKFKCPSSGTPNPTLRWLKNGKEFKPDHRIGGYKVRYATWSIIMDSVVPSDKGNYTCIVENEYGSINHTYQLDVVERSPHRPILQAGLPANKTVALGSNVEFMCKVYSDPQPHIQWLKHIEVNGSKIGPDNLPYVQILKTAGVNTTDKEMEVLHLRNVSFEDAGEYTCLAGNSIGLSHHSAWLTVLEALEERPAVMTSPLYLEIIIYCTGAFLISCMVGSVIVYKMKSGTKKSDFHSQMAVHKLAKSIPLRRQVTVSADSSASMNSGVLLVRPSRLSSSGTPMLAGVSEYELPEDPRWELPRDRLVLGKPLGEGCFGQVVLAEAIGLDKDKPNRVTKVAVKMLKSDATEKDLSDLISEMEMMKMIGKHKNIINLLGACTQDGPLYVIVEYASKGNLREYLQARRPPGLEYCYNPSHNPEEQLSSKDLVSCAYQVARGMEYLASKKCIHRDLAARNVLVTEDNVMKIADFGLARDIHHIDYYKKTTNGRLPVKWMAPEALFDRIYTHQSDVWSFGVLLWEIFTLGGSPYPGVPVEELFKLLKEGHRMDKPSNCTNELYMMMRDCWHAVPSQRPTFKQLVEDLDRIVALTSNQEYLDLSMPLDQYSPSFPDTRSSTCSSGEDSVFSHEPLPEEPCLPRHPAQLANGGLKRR
Vascular endothelial growth factor receptor 2 (Homo sapiens), sequence (P35968 whole entry, canonical isoform): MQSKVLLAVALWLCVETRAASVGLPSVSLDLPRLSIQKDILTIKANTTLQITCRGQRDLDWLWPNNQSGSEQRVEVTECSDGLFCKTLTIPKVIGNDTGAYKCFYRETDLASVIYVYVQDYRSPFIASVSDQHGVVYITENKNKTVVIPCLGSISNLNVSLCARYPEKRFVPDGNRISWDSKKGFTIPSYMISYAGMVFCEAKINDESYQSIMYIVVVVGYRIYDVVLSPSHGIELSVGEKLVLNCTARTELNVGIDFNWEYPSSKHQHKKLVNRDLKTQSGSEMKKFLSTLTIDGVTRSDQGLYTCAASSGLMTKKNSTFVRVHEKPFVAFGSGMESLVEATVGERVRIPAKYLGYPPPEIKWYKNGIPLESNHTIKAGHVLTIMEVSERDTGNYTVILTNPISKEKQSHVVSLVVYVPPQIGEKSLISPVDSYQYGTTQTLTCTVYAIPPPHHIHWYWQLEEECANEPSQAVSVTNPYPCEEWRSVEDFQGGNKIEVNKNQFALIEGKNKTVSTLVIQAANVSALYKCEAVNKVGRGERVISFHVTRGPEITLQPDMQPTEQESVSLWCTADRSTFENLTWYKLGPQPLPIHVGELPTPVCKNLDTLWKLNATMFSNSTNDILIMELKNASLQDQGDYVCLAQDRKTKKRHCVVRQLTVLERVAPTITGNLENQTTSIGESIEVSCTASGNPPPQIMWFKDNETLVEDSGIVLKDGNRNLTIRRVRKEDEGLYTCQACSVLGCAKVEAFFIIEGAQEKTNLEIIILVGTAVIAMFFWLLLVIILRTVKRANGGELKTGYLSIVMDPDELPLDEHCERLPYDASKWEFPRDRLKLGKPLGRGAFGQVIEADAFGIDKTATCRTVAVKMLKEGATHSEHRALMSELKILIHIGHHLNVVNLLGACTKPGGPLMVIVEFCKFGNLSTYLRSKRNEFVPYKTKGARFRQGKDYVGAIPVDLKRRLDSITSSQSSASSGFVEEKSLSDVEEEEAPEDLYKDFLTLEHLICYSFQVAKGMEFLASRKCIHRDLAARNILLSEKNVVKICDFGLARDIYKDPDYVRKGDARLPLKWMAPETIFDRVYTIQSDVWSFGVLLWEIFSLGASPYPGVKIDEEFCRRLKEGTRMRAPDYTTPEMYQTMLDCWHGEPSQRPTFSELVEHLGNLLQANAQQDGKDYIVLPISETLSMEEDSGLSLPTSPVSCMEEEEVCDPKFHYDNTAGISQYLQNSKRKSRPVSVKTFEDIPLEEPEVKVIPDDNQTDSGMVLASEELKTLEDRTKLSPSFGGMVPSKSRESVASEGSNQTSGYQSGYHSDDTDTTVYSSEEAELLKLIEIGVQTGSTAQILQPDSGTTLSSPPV
Phosphatidylinositol 4,5-bisphosphate 3-kinase catalytic subunit alpha isoform (Homo sapiens), sequence (P42336 whole entry, canonical isoform): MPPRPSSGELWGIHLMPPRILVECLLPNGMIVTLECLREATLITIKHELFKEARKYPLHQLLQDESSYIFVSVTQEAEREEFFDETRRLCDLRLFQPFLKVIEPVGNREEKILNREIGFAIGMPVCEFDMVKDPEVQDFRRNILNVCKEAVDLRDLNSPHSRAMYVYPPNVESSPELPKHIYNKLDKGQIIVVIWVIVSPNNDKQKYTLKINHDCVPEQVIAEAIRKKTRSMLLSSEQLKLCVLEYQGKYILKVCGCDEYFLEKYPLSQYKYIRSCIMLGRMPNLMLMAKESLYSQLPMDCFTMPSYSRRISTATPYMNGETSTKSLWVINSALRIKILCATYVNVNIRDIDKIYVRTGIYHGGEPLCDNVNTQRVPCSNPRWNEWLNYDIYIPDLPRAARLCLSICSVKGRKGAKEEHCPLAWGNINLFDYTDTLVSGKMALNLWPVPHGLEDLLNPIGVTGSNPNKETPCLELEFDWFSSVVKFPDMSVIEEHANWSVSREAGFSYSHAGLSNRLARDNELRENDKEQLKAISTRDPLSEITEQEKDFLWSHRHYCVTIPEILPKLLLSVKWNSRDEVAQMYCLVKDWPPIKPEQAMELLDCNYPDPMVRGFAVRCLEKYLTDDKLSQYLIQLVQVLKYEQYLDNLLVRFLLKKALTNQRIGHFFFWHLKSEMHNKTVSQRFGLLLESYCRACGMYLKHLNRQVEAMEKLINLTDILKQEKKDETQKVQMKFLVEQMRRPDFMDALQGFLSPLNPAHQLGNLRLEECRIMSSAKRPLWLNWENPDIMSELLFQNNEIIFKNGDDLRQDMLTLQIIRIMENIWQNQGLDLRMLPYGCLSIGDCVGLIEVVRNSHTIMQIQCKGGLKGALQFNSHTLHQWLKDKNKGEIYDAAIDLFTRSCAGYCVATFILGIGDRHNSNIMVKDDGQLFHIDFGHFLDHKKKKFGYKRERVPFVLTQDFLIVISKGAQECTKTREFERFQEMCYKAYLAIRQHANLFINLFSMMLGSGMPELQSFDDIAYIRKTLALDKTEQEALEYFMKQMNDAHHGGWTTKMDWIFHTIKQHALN
Description for Aurora kinase C: Inhibition of recombinant full-length His-tagged human Aurora C expressed in baculovirus expression system

As to `O=C(Nc1ccc(Nc2nccc(Nc3ccccc3Cl)n2)cc1)Nc1ccc(Cl)c(C(F)(F)F)c1`, the IC50 in the experiment with A549 was found to be 18.6 µM; in the experiment on HCT-116 [1], 8.1 µM; with MCF7 it was 27.9 µM.
The corresponding values for `Cc1cc(Nc2cc(N3CCN(C)CC3)nc(Sc3ccc(NC(=O)C4CC4)cc3)n2)n[nH]1` [TOZASERTIB] are 3.9 µM, 1.49 µM and 17.4 µM.
On the same counts, the results for `O=C(Nc1ccc(Nc2nccc(NC3CCCC3)n2)cc1)Nc1ccc(Cl)c(C(F)(F)F)c1` are 5.88 µM, 2.51 µM and 2.33 µM.
The corresponding values for `O=C(Nc1ccc(Nc2nccc(NC3CCCCC3)n2)cc1)Nc1ccc(Cl)c(C(F)(F)F)c1` are 7.43 µM, 5.95 µM and 10.8 µM.
Take `O=C(Nc1ccc(Nc2nccc(Nc3ccc(Cl)cc3)n2)cc1)Nc1ccc(Cl)c(C(F)(F)F)c1`: the values for the IC50 in the experiment on A549, with HCT-116 [1] and with MCF7 were 6.32 µM, 4.66 µM and 12.8 µM, respectively.
The corresponding values for `O=C(Nc1ccc(Cl)cc1)Nc1ccc(Nc2nccc(NC3CCCC3)n2)cc1` are 11.8 µM, 5.31 µM and 22 µM.
With `O=C(Nc1ccc(Nc2nccc(NC3CCCC3)n2)cc1)NC1CCCCC1`, the IC50 in the experiment with A549 turned out to be 5.32 µM; in the experiment with HCT-116 [1], 1.09 µM; with MCF7 it was 19.2 µM; on Aurora kinase B [2], 0.329 µM. Also, the inhibition in experiment [3] is 4.5%; in experiment [4] it was 16.8%; in experiment [5], less than 1%.
Take `O=C(Cc1ccc(Nc2nccc(NC3CCCC3)n2)cc1)NC1CCCCC1`: the IC50 in the experiment with A549 turned out to be 12.1 µM; with HCT-116 [1], 1.31 µM; in the experiment on MCF7, 20.5 µM; at Aurora kinase A, 0.309 µM; at Aurora kinase B [2], 0.293 µM. Further, the results for the inhibition in experiment [3], in experiment [4] and in experiment [5] were less than 1%, 2.4% and less than 1%, respectively. Moreover, the inhibition result (in [6]; at Aurora kinase B [7]) was “Active” each time. In addition, the viability at 0.1 µM in the experiment with HCT-116 [8] is 87.8%. Also, the Activity is 1.9% in the experiment with HCT-116 [9]; 5.89% in the experiment on HCT-116 [10]; 4.39% with HCT-116 [11]; 3.99% in the experiment on HCT-116 [13]; 22.54% with HCT-116 [14]; 15.45% in the experiment with HCT-116 [15]. For the same compound, the Activity was 0.84% with HCT-116 [17], 45.64% with HCT-116 [18], 46.07% in the experiment with HCT-116 [19] and “Dose-dependent effect” in the experiment with HCT-116 [20]. Besides, the viability at 0.5 µM with HCT-116 [12] was determined as 58%. Moreover, in the experiment on HCT-116 [16], the viability at 1 µM was 7.46%. The result with HCT-116 [21] and with HCT-116 [22] was Active.
In the case of `O=C(CC1CCCCC1)Nc1ccc(Nc2nccc(NC3CCCC3)n2)cc1`, the half-maximal inhibitory concentration (IC50) amounted to 3.94 µM in the experiment with A549, 2.44 µM with HCT-116 [1] and 17.6 µM in the experiment with MCF7.
Turning to `O=C(Nc1ccc(Nc2nccc(NC3CCCC3)n2)cc1)Nc1cccc(C(F)(F)F)c1`, the IC50 in the experiment on A549 was 4.9 µM; in the experiment with HCT-116 [1], 2.41 µM; with MCF7, 5.18 µM.
The corresponding values for `O=C(Nc1ccc(Nc2nccc(Nc3cccc(Cl)c3)n2)cc1)Nc1ccc(Cl)c(C(F)(F)F)c1` are 8.05 µM, 4.82 µM and 10.4 µM.
The corresponding values for `Cn1cc(Nc2ccnc(Nc3ccc(NC(=O)Nc4ccc(Cl)c(C(F)(F)F)c4)cc3)n2)cn1` are 8.61 µM, 4.85 µM and 9.77 µM.
On the same counts, the results for `O=C(Cc1ccc(Nc2nccc(NC3CCCC3)n2)cc1)Nc1cccc(C(F)(F)F)c1` are 3.4 µM, 2.5 µM and 16.4 µM.
Take `O=C(Cc1cccc(C(F)(F)F)c1)Nc1ccc(Nc2nccc(NC3CCCC3)n2)cc1`: the IC50 with A549 amounted to 8.27 µM; with HCT-116 [1], 5.44 µM; in the experiment with MCF7, 5.7 µM.
The corresponding values for `CCCNc1ccnc(Nc2ccc(NC(=O)Nc3ccc(Cl)c(C(F)(F)F)c3)cc2)n1` are 7.32 µM, 4.24 µM and 4.61 µM.
The corresponding values for `O=C(Nc1ccc(Nc2nccc(NC3CC3)n2)cc1)Nc1ccc(Cl)c(C(F)(F)F)c1` are 18.5 µM, 16.4 µM and 38.2 µM.
The corresponding values for `O=C(Nc1ccc(Nc2nccc(Nc3ccccc3)n2)cc1)Nc1ccc(Cl)c(C(F)(F)F)c1` are greater than 50 µM, greater than 50 µM and greater than 50 µM.
`c1nc2nc(Nc3ccc(N4CCOCC4)cc3)nc(NC3CCCCC3)c2[nH]1` [REVERSINE] registered a half-inhibitory concentration (IC50) against Aurora kinase C of 0.4 µM.
